Measured values reported in US11827917B1, “Methods for the conversion of fermentable sugars to ethanol” (Colorado State University Research Foundation, priority 2020, dated 2023).
Entries after “also recorded” stand apart in the source; their conditions may differ. Marks after values point to notes of the source that are not given here.

What was measured:
[1] = test system: S. cerevisiae JAY 270; test: Screening of growth in 24-well plates on YPDA; assay type: cell-based, Saccharomyces cerevisiae; conditions: for Cell growth score (colony size): YPDA, 30° C., 24 h
Protocol: Procedure: An inoculum culture of S. cerevisiae JAY 270 was grown in 100 mL of yeast extract-peptone-dextrose (YPD) medium (10 g/L yeast extract, 20 g/L peptone, 20 g/L glucose) in 200-mL serum bottles overnight in a shaker at 30° C. and 200 rpm. The cells were collected by centrifuging 10 min at 4000×g and 4° C. To wash off the medium residue, the cell pellet was resuspended in 30 mL of sterile 0.8% (w/v) NaCl solution and centrifuged at 4000×g for 10 min. The cell pellet was washed twice. Finally, the cell pellet was resuspended and diluted in 0.8% (w/v) NaCl to achieve cell concentrations of OD600=0.02 and 0.2.
The eight compounds were added in YPDA separately at 0.03%, 0.05%, 0.1%, and 0.2% (w/v). The standard control treatment contained only YPDA medium without addition of these compounds. Since the TrpOH and TyrOH stock solutions were dissolved in DMSO, the controls for those tests were YPDA with the same concentration of DMSO. A 3-mL aliquot of YPDA medium with or without the test compounds were loaded in each well of the 24-well plate.
Ten μL of the prepared S. cerevisiae JAY 270 cell suspension at OD600=0.02 or 0.2 was loaded onto the YPDA medium in each well of the 24-well plates. Then the plates were sealed with Parafilm and incubated at 30° C. for 24 h. There were four biological replicates for each treatment.
Yeast cell growth was evaluated by visual observation of the colony size in the well and scored as 0, +, ++, and +++.

[2] = test system: S. cerevisiae JAY 270; test: Growth test in liquid YNB medium, low/high nitrogen, serum bottles; assay type: cell-based, Saccharomyces cerevisiae; conditions: 40, 200, 1000 mg/L; low and high nitrogen media
Protocol: A second set of tests was performed in a defined liquid medium, Yeast Nitrogen Base with Glucose (YNB), containing (NH4)2SO4 at either low (1 mM) or high (10 mM) nitrogen content. […] All serum bottles were incubated in a shaker at 30° C. and 150 RPM. Each treatment was performed in biological duplicate. Samples were collected at 0, 5, and 10 hours.

[3] = test system: S. kudriavzezii JAY 1503; test: Serum-bottle cultivation in YPD, different yeast strains; assay type: cell-based; conditions: 0.2%
Protocol: (§1) Analytical methods: Cell growth was evaluated by monitoring OD600 and cell dry mass concentration. For dry mass measurements, 1.0 mL of culture was transferred to a pre-dried and pre-weighed 2-mL centrifuge tube. The tubes were centrifuged for 10 min at 14000 rpm using a microcentrifuge, and then the cell pellets were dried in an oven for 3 days at 65° C. The cell dry mass was determined by subtracting the initial tube mass from the dried mass of tube with cells. The concentrations of glucose, ethanol, and glycerol were measured via HPLC (Shimadzu LC20A series) outfitted with a refractive index detector and using an Aminex HPX-87H (300×7.8 mm) organic acid column and Cation H+ guard cartridge (Bio Rad Laboratories, Hercules, CA). The column was maintained at 65° C. and the mobile phase was 5 mM sulfuric acid with a flow rate of 0.6 mL/min. Standard compound solutions were used to calibrate the HPLC. Each sample was analyzed three times by HPLC.
(§2) Procedure: Seven yeast strains (S. cerevisiae ATCC 26603, S. cerevisiae JAY 238, S. cerevisiae JAY 240, S. cerevisiae JAY 241, S. paradoxus JAY 1502, S. kudriavzezii JAY 1503, and S. mikatae JAY 1504) were pre-cultured in 30 mL of YPD medium in 100 mL serum bottle overnight in a shaker at 30° C. and 200 rpm. The precultured yeast cells of each strains were collected and washed twice. Finally, the cell pellet was resuspended in about 10 mL 0.8% (w/v) NaCl and the OD600 measured. TyrOH, PheOH, and TrpOH were added to 30 mL of YPD medium in 100-mL serum bottles at 0.2% (w/v) respectively. The same amount of DMSO was added in YPD medium and served as control to the TrpOH and TyrOH treatments. The prepared yeast cells were added to obtain the initial cell concentration at OD600=0.2. The serum bottles were sealed and cultured in a shaker at 30° C. and 200 rpm for 24 h. There were three biological replicates for each treatment.

[4] = test system: S. mikatae JAY 1504; test: as above; assay type: cell-based; conditions: 0.2%
Protocol: as §1, §2

[5] = test system: S. paradoxus JAY 1502; test: as above; assay type: cell-based; conditions: 0.2%
Protocol: as §1, §2

[6] = S. kudriavzezii JAY 1503, YPD (Table 9B)
[7] = S. mikatae JAY 1504, YPD (Table 9B)
[8] = S. paradoxus JAY 1502, YPD (Table 9B)

OCCc1ccccc1 [PheOH, 2-phenylethanol]
Cell growth score (colony size) ([1]; 0.03% (w/v)): +++ | Cell growth score (colony size) ([1]; 0.05% (w/v)): +++ | Cell growth score (colony size) ([1]; 0.10% (w/v)): ++ | Cell growth score (colony size) ([1]; 0.20% (w/v)): + | Concentration at which cell growth was reduced in the plate assay ([1]; molar equivalent of the % w/v value): 8.2 mM | Effect on cell growth in the plate assay (words) ([1]; tested concentrations, 24-well plates): inhibited growth; also recorded: reduced the growth | Inhibitory effect on yeast cell growth in liquid YNB medium [2]: inhibitory at 1000 mg/L in both media, but not at 40 and 200 mg/L | Biomass Yield ([3]; S. kudriavzezii JAY 1503): 0.036 ± 0.001 g/g | Biomass yield % change vs. control ([3]; S. kudriavzezii JAY 1503): −19% | EtOH yield ([3]; S. kudriavzezii JAY 1503): 0.399 ± 0.030 g/g | EtOH yield % change vs. control ([3]; S. kudriavzezii JAY 1503): +8.7% | Glycerol yield ([3]; S. kudriavzezii JAY 1503): 0.060 ± 0.005 g/g | Glycerol yield % change vs. control ([3]; S. kudriavzezii JAY 1503): +19* % | DCW ([3]; S. kudriavzezii JAY 1503, YPD): 1.90 mg | DCW Δ vs. ref ([3]; S. kudriavzezii JAY 1503, YPD): 84.4% | OD600 ([3]; S. kudriavzezii JAY 1503, YPD): 0.92 | OD600 Δ vs. ref ([3]; S. kudriavzezii JAY 1503, YPD): 74.9% | Biomass Yield [3, 6]: 0.043 + 0.004 g/g | Biomass yield Δ vs. ref [3, 6]: 18.6% | Ethanol yield [3, 6]: 0.399 ± 0.030 g/g | Ethanol yield Δ vs. ref [3, 6]: 8.7% | Glycerol yield [3, 6]: 0.06 ± 0.005 g/g | Glycerol yield Δ vs. ref [3, 6]: 18.78% | Biomass Yield ([4]; S. mikatae JAY 1504): 0.053 ± 0.000 g/g | Biomass yield % change vs. control ([4]; S. mikatae JAY 1504): −14% | EtOH yield ([4]; S. mikatae JAY 1504): 0.386 ± 0.009 g/g | EtOH yield % change vs. control ([4]; S. mikatae JAY 1504): +3.6% | Glycerol yield ([4]; S. mikatae JAY 1504): 0.043 ± 0.007 g/g | Glycerol yield % change vs. control ([4]; S. mikatae JAY 1504): +4.1% | DCW ([4]; S. mikatae JAY 1504, YPD): 2.35 mg | DCW Δ vs. ref ([4]; S. mikatae JAY 1504, YPD): 77.1% | OD600 ([4]; S. mikatae JAY 1504, YPD): 1.85 | OD600 Δ vs. ref ([4]; S. mikatae JAY 1504, YPD): 82.9% | Biomass Yield [4, 7]: 0.053 + 0.000 g/g | Biomass yield Δ vs. ref [4, 7]: −13.8% | Ethanol yield [4, 7]: 0.386 ± 0.009 g/g | Ethanol yield Δ vs. ref [4, 7]: 3.6% | Glycerol yield [4, 7]: 0.043 ± 0.007 g/g | Glycerol yield Δ vs. ref [4, 7]: 4.09% | Biomass Yield ([5]; S. paradoxus JAY 1502): 0.048 ± 0.001 g/g | Biomass yield % change vs. control ([5]; S. paradoxus JAY 1502): −30* % | EtOH yield ([5]; S. paradoxus JAY 1502): 0.393 ± 0.000 g/g | EtOH yield % change vs. control ([5]; S. paradoxus JAY 1502): +2.7% | Glycerol yield ([5]; S. paradoxus JAY 1502): 0.048 ± 0.002 g/g | Glycerol yield % change vs. control ([5]; S. paradoxus JAY 1502): +22* % | DCW ([5]; S. paradoxus JAY 1502, YPD): 1.95 mg | DCW Δ vs. ref ([5]; S. paradoxus JAY 1502, YPD): 78.0% | OD600 ([5]; S. paradoxus JAY 1502, YPD): 1.64 | OD600 Δ vs. ref ([5]; S. paradoxus JAY 1502, YPD): 70.0% | Biomass Yield [5, 8]: 0.048 + 0.001 g/g | Biomass yield Δ vs. ref [5, 8]: −29.8% | Ethanol yield [5, 8]: 0.393 ± 0.000 g/g | Ethanol yield Δ vs. ref [5, 8]: 2.7% | Glycerol yield [5, 8]: 0.048 ± 0.002 g/g | Glycerol yield Δ vs. ref [5, 8]: 21.98%
